Bridge positions count the residues as written; N and C are the ends. Square brackets hold non-standard residues; d marks the D form. Peptide text beside a SMILES is read from it. Nle = CCCC[C@H](N)C(=O)O

In assay [1] the target is T1, human Kv1.3 voltage-gated K+ channel (Homo sapiens, UniProt P22001).
T1 construct: host or cells: CHO-DUKX
Description: cell-based. The note with it: inhibition of thallium flux, CHO-DUKX cells with human Kv1.3; read-out: IC50.

For a further assay, the target named is T2, Kv1.1 (Homo sapiens, UniProt Q09470).
T2 construct: expressed in transfected cells; host or cells: Chinese Hamster Ovary (CHO)
T2 sequence (Q09470 whole entry): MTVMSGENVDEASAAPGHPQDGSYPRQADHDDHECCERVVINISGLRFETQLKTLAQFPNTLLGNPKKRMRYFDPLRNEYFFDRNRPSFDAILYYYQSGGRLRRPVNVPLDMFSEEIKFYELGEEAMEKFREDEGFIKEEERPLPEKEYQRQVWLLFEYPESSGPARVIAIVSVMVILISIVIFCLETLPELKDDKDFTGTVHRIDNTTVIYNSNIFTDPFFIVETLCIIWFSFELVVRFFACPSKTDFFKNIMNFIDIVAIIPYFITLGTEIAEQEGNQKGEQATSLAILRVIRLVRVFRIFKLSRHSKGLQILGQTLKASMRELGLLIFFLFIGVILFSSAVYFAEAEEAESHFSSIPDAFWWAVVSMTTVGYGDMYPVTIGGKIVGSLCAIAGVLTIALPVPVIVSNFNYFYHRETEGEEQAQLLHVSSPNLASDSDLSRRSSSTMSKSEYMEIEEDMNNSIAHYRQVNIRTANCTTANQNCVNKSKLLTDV
The assay is described as follows: cell-based. The note with it: for IC50: CHO cells, whole-cell patch clamp, read-out: Potency IC50 (nM) Kv1.1; for Selectivity Kv1.1/Kv1.3: ratio IC50[Kv1.1]/IC50[Kv1.3]. On the technique in general: The patch-clamp technique gives a direct electrical read-out from membranes.

The next assay addresses T3, Kv1.2 (Homo sapiens, UniProt P16389).
T3 construct: expressed in transfected cells; host or cells: Chinese Hamster Ovary (CHO)
The assay is described as follows: cell-based. To be noted: CHO cells, whole-cell patch clamp; read-out: Potency IC50 (nM) Kv1.2.

The target of the next assay is T4, Kv1.3 (Homo sapiens, UniProt P22001).
T4 construct: expressed in transfected cells; host or cells: Chinese Hamster Ovary (CHO)
T4 sequence (P22001 whole entry): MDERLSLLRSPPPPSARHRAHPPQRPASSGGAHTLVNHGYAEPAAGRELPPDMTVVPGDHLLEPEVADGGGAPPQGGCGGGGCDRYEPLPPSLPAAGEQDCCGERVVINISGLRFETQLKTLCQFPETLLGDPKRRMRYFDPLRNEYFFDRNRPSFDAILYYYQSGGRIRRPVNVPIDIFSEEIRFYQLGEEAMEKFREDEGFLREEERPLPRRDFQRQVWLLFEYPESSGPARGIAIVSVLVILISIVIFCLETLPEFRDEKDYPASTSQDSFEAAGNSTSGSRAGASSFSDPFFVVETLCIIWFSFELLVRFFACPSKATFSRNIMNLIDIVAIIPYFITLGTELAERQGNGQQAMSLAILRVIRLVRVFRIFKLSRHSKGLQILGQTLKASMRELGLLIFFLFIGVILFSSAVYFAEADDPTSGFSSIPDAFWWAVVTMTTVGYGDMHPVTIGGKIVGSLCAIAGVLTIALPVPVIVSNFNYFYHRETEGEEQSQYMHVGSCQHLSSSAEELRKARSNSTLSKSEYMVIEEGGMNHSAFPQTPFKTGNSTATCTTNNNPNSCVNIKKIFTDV
The assay is described as follows: cell-based. The note with it: CHO cells, whole-cell patch clamp; read-out: Potency IC50 (nM) Kv1.3.

The target of another assay is T5, Kv1.6 (Homo sapiens, UniProt P17658).
T5 construct: expressed in transfected cells; host or cells: Chinese Hamster Ovary (CHO)
T5 sequence (P17658 whole entry): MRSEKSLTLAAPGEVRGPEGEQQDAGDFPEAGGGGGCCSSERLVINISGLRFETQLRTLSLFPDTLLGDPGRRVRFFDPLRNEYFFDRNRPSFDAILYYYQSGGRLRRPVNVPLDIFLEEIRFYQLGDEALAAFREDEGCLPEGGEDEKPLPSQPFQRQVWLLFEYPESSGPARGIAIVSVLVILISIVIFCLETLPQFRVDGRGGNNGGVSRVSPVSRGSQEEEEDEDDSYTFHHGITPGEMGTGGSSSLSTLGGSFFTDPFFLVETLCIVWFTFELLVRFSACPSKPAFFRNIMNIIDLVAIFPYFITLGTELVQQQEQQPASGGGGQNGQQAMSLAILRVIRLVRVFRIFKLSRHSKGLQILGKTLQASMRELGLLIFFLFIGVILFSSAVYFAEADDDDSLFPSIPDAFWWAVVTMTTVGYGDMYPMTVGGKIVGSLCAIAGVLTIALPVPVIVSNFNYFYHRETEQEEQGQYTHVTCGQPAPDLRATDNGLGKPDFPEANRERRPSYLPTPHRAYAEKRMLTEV
Description: cell-based. To be noted: for IC50: CHO cells, whole-cell patch clamp, read-out: Potency IC50 (nM) Kv1.6; for Selectivity Kv1.6/Kv1.3: ratio IC50[Kv1.6]/IC50[Kv1.3].

A further assay has as its target Rat whole blood (Rattus norvegicus, UniProt P15384).

T1 sequence (P22001 whole entry): as the sequence (P22001 whole entry) above
T3 sequence (P16389 whole entry): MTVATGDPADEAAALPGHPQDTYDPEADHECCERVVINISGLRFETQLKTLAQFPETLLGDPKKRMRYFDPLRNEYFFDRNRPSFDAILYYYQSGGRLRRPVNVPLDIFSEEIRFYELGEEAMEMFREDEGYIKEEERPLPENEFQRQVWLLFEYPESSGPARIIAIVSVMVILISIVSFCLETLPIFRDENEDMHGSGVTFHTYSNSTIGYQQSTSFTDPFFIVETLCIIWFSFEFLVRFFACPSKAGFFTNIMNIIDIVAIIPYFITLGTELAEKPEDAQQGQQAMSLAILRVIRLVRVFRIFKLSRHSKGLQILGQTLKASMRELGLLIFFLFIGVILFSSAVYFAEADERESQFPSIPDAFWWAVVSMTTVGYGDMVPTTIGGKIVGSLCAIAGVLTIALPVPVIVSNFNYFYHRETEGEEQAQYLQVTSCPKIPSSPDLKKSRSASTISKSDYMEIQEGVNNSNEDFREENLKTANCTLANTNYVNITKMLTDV
Rat whole blood, sequence (P15384 whole entry): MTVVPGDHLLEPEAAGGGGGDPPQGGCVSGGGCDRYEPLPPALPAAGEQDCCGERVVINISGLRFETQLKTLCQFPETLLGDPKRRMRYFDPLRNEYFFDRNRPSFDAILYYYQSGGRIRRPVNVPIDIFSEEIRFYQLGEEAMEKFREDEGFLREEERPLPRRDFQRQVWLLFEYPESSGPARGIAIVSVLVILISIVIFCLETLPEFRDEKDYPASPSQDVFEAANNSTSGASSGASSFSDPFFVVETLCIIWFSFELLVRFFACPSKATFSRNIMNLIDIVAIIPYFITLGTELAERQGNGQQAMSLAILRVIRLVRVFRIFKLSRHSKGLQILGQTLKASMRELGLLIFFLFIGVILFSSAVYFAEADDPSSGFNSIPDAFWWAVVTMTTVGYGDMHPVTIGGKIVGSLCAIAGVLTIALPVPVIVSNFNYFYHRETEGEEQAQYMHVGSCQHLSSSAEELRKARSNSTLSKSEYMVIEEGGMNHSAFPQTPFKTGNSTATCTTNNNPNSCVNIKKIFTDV

As to `CC[C@H](C)[C@@H]1NC(=O)[C@H](C)NC(=O)[C@H](CCCCN)NC(=O)[C@H](CC(C)C)NC(=O)[C@@H]2CSSC[C@@H](C(=O)N[C@@H](Cc3ccc(O)cc3)C(=O)N3CCC[C@H]3C(=O)N[C@@H](CCCNC(=N)N)C(N)=O)NC(=O)[C@H](CCCCN)NC(=O)[C@@H]3CSSC[C@H](NC(=O)[C@H](CCC(N)=O)NC(=O)[C@H](C(C)C)NC(=O)[C@H](CO)NC(=O)[C@H](C)NC(=O)[C@H](CO)NC(=O)[C@@H](NC(=O)[C@H](CCCNC(=N)N)NC(=O)[C@H](CCSC)NC(=O)[C@H](CC(=O)O)NC(=O)[C@H](CCSC)NC(=O)[C@@H](N)CC(N)=O)CSSC[C@H](NC(=O)[C@H](CCCCN)NC(=O)CNC(=O)[C@H](Cc4ccccc4)NC(=O)[C@H]([C@@H](C)CC)NC(=O)[C@H](CO)NC(=O)CNC1=O)C(=O)N[C@@H](CCSC)C(=O)N[C@@H](CC(N)=O)C(=O)N[C@@H](CCCCN)C(=O)N[C@@H](CCCCN)C(=O)N3)C(=O)N[C@@H](CCCCN)C(=O)N[C@@H](CCC(N)=O)C(=O)N[C@@H](CCCCN)C(=O)N2` [Compound 28] (H-NMDMRCSASVQCKQKCLKAIGSIFGKCMNKKCKCYPR-NH2; disulfide 6-27, 12-32, 16-34), the IC50 in assay [1] was 0.064 nM; on Kv1.1, above 3000 nM; at Kv1.2, 16 nM; at Kv1.3, 0.2 nM; on Kv1.6, 252 nM; against Rat whole blood it was at most 1 nM. In addition, on Kv1.1, the “Selectivity Kv1.1/Kv1.3” value is reported as above 15200.

Take `CCCC[C@H](NC(=O)[C@@H](N)CO)C(=O)N[C@@H](CC(=O)O)C(=O)N[C@@H](CCC(=O)O)C(=O)N[C@@H](CCCNC(=N)N)C(=O)N[C@H]1CSSC[C@@H]2NC(=O)[C@H](CCCCN)NC(=O)CNC(=O)[C@H](Cc3ccccc3)NC(=O)[C@H]([C@@H](C)CC)NC(=O)[C@H](CO)NC(=O)CNC(=O)[C@H]([C@@H](C)CC)NC(=O)[C@H](C)NC(=O)[C@H](CCCCN)NC(=O)[C@H](CC(C)C)NC(=O)[C@@H]3CSSC[C@@H](C(=O)N[C@@H](Cc4ccc(O)cc4)C(=O)N4CCC[C@H]4C(=O)N[C@@H](CCCNC(=N)N)C(N)=O)NC(=O)[C@H](CCCCN)NC(=O)[C@H](CSSC[C@H](NC(=O)[C@H](CCC(=O)O)NC(=O)[C@H](C(C)C)NC(=O)[C@H](CO)NC(=O)[C@H](C)NC(=O)[C@H](CO)NC1=O)C(=O)N[C@@H](CCCCN)C(=O)N[C@@H](CCC(N)=O)C(=O)N[C@@H](CCCCN)C(=O)N3)NC(=O)[C@H](CCCCN)NC(=O)[C@H](CCCCN)NC(=O)[C@H](CC(N)=O)NC(=O)[C@H](CCSC)NC2=O` [Compound 76] (H-S[Nle]DERCSASVECKQKCLKAIGSIFGKCMNKKCKCYPR-NH2; disulfide 6-27, 12-32, 16-34): the half-inhibitory concentration (IC50) in assay [1] was 0.093 nM; at Kv1.1, above 3000 nM; at Kv1.2, 122 nM; on Kv1.3, 0.28 nM; on Kv1.6 it was above 3000 nM; on Rat whole blood, at most 1 nM. Further, at Kv1.1, the “Selectivity Kv1.1/Kv1.3” value is on record as above 10600. Further, at Kv1.6, the “Selectivity Kv1.6/Kv1.3” value is above 10600.

With `CCCC[C@@H]1NC(=O)[C@@H]2CSSC[C@H](NC(=O)[C@H](CCCNC(=N)N)NC(=O)[C@H](CCCC)NC(=O)[C@H](CC(=O)O)NC(=O)[C@H](CCCC)NC(=O)[C@@H](N)CC(N)=O)C(=O)N[C@@H](CO)C(=O)N[C@@H](C)C(=O)N[C@@H](CO)C(=O)N[C@@H](C(C)C)C(=O)N[C@@H](CCC(=O)O)C(=O)N[C@H]3CSSC[C@H](NC(=O)[C@H](CCCCN)NC(=O)[C@H](CCCCN)NC(=O)[C@H](CC(N)=O)NC1=O)C(=O)N[C@@H](CCCCN)C(=O)N[C@H](C(=O)N[C@@H](Cc1ccc(O)cc1)C(=O)N1CCC[C@H]1C(=O)N[C@@H](CCCNC(=N)N)C(N)=O)CSSC[C@H](NC(=O)[C@H](CCCCN)NC(=O)[C@H](CCC(N)=O)NC(=O)[C@H](CCCCN)NC3=O)C(=O)N[C@@H](CCCCN)C(=O)N[C@@H](C)C(=O)N[C@@H]([C@@H](C)CC)C(=O)NCC(=O)N[C@@H](CO)C(=O)N[C@@H]([C@@H](C)CC)C(=O)N[C@@H](Cc1ccccc1)C(=O)NCC(=O)N[C@@H](CCCCN)C(=O)N2` [Compound 49] (H-N[Nle]D[Nle]RCSASVECKQKCKAIGSIFGKC[Nle]NKKCKCYPR-NH2; disulfide 6-26, 12-31, 16-33), the half-maximal inhibitory concentration (IC50) in assay [1] is 0.36 nM; on Kv1.1, above 3000 nM; on Kv1.2, 164 nM; on Kv1.3 it was 1.34 nM; on Kv1.6, 946 nM; on Rat whole blood, at most 1 nM. Moreover, on Kv1.1, the “Selectivity Kv1.1/Kv1.3” value is reported as above 2200.

For `CCCC[C@@H]1NC(=O)[C@@H]2CSSC[C@H](NC(=O)[C@H](CCCNC(=N)N)NC(=O)[C@H](CCCC)NC(=O)[C@H](CC(=O)O)NC(=O)[C@H](CCCC)NC(=O)[C@@H](N)CC(N)=O)C(=O)N[C@@H](CO)C(=O)N[C@@H](C)C(=O)N[C@@H](CO)C(=O)N[C@@H](C(C)C)C(=O)N[C@@H](CCC(=O)O)C(=O)N[C@H]3CSSC[C@H](NC(=O)[C@H](CCCCN)NC(=O)[C@H](CCCCN)NC(=O)[C@H](CC(N)=O)NC1=O)C(=O)N[C@@H](CCCCN)C(=O)N[C@H](C(=O)N[C@@H](Cc1ccc(O)cc1)C(=O)N1CCC[C@H]1C(=O)N[C@@H](CCCNC(=N)N)C(N)=O)CSSC[C@H](NC(=O)[C@H](CCCCN)NC(=O)[C@H](CCCCN)NC(=O)[C@H](CCCCN)NC3=O)C(=O)N[C@@H](CC(C)C)C(=O)N[C@@H](CCCCN)C(=O)N[C@@H](C)C(=O)N[C@@H]([C@@H](C)CC)C(=O)NCC(=O)N[C@@H](CO)C(=O)N[C@@H]([C@@H](C)CC)C(=O)N[C@@H](Cc1ccccc1)C(=O)NCC(=O)N[C@@H](CCCCN)C(=O)N2` [Compound 45] (H-N[Nle]D[Nle]RCSASVECKKKCLKAIGSIFGKC[Nle]NKKCKCYPR-NH2; disulfide 6-27, 12-32, 16-34), the IC50 was 0.16 nM in assay [1]; above 3000 nM at Kv1.1; 257 nM at Kv1.2; 0.75 nM at Kv1.3; above 3000 nM at Kv1.6. Further, the “Selectivity Kv1.1/Kv1.3” value on Kv1.1 was above 4000. At Kv1.6, the “Selectivity Kv1.6/Kv1.3” value is above 4000.

As to `CCCC[C@H](NC(=O)[C@H](CC(=O)O)NC(=O)[C@H](CCCC)NC(=O)[C@@H](N)CO)C(=O)N[C@@H](CCCNC(=N)N)C(=O)N[C@H]1CSSC[C@@H]2NC(=O)[C@H](CCCCN)NC(=O)CNC(=O)[C@H](Cc3ccccc3)NC(=O)[C@H]([C@@H](C)CC)NC(=O)[C@H](CO)NC(=O)CNC(=O)[C@H]([C@@H](C)CC)NC(=O)[C@H](C)NC(=O)[C@H](CCCCN)NC(=O)[C@H](CC(C)C)NC(=O)[C@@H]3CSSC[C@@H](C(=O)N[C@@H](Cc4ccc(O)cc4)C(=O)N4CCC[C@H]4C(=O)N[C@@H](CCCNC(=N)N)C(N)=O)NC(=O)[C@H](CCCCN)NC(=O)[C@H](CSSC[C@H](NC(=O)[C@H](CCC(=O)O)NC(=O)[C@H](C(C)C)NC(=O)[C@H](CO)NC(=O)[C@H](C)NC(=O)[C@H](CO)NC1=O)C(=O)N[C@@H](C)C(=O)N[C@@H](CCC(N)=O)C(=O)N[C@@H](CO)C(=O)N3)NC(=O)[C@H](CCCCN)NC(=O)[C@H](CCCCN)NC(=O)[C@H](CC(N)=O)NC(=O)[C@H](CCSC)NC2=O` [Compound 79] (H-S[Nle]D[Nle]RCSASVECAQSCLKAIGSIFGKCMNKKCKCYPR-NH2; disulfide 6-27, 12-32, 16-34), the half-inhibitory concentration (IC50) is 0.13 nM in assay [1]; above 3000 nM at Kv1.1; 1150 nM at Kv1.2; 0.21 nM on Kv1.3; above 3000 nM at Kv1.6. Besides, at Kv1.1, the “Selectivity Kv1.1/Kv1.3” value is given as above 14600. Further, the “Selectivity Kv1.6/Kv1.3” value on Kv1.6 is above 14600.

One may read the IC50 as the concentration at which inhibition is half-maximal.
